# Measured values: publication PMC6253875, “Synthesis and Evaluation of Non-peptidic Cysteine Protease Inhibitors of P. falciparum Derived from Etacrynic Acid” (Molecules, 2008)
# Like-named read-outs stand apart in the source and are kept apart here.
# Tests used:
# falcipain-2 = biological target: T1, falcipain-2 (Plasmodium falciparum, UniProt Q8I6U4); assay: Inhibition of recombinant falcipain-2, fluorometric microplate assay (Cbz-Phe-Arg-AMC); assay type: biochemical
# T1 construct: made in house; host or cells: E. coli
# T1 sequence (Q8I6U4 244-484): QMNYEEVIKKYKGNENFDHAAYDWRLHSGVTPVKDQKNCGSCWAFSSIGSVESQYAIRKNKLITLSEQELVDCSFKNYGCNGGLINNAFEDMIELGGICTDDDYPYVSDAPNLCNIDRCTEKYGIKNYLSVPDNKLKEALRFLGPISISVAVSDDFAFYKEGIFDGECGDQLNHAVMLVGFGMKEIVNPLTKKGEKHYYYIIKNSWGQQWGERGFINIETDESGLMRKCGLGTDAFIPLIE
# Procedure: (§1) Recombinant falcipain-2 and falcipain-3 were produced as previously described. Inhibitory activities against recombinant falcipain-2 and falcipain-3 were evaluated in fluorometric microplate assays using the substrates Cbz-Phe-Arg-AMC and Cbz-Leu-Arg-AMC (AMC, 7-amino-4-methyl-coumarin). The cysteine protease inhibitor E-64 was used as a positive control. The solvent DMSO was used as negative control. […] The in vitro data for the etacrynic acid derivatives are compared to those of the well known drug chloroquine and to E-64.
# (§2) Falcipain-2 and falcipain-3 were recombinantly expressed in E. coli and refolded to active enzyme as previously described.
# (§3) IC50 values for inhibition of falcipain-2 and falcipain-3 were determined as described previously using the fluorogenic substrates Cbz-Phe-Arg-AMC and Cbz-Leu-Arg-AMC, respectively (AMC, 7-amino-4 methylcoumarin). As a positive control the well-known cysteine protease inhibitor E-64 [7, 25, 26] and as a negative control the solvent (DMSO) was used. Dose-dependent effects of compounds on parasite development (P. falciparum strain W2) were quantified by flow cytometry according to a previously published method. First, a screening with inhibitor concentrations of […] was performed and the percentage activity of infected red blood cells (RBCs) relative to the negative control was determined. […] Chloroquine and E-64 were used as positive controls, and the solvent DMSO was used as a negative control. For selected compounds assays with the P. falciparum strain 3D7 were performed using a fluorometric assay with Hoechst-33258 [28], or the microculture tetrazolium test measuring parasite lactate dehydrogenase activity. The parasites were cultivated in vitro as described previously. Compounds were screened at concentrations between 1 nM and 100 μM. Synchronized ring stages were plated in 96-well plates at a parasitemia of 1%, in the presence of the compounds (dissolved in DMSO). Incubation of parasites with DMSO alone at a concentration of 0.5% v/v was used as a negative control. IC50 values were calculated by non-linear regression analyses using the programs GaphPad® Prism 4 and GraFit® [31, 32].
# falcipain-3 = biological target: T2, falcipain-3 (Plasmodium falciparum, UniProt Q8IIL0); assay: Inhibition of recombinant falcipain-3, fluorometric microplate assay (Cbz-Leu-Arg-AMC); assay type: biochemical
# T2 construct: made in house; host or cells: E. coli
# T2 sequence (Q8IIL0 243-492): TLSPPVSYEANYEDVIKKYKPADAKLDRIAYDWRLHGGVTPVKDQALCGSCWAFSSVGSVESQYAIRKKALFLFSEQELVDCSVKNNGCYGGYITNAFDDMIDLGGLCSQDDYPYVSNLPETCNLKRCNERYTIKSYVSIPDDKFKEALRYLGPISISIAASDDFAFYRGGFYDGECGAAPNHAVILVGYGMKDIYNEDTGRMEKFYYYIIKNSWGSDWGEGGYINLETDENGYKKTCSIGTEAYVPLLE
# Procedure: as §1, §2, §3
# P. falciparum strain W2 = assay: Antiplasmodial activity in vitro, parasite development quantified by flow cytometry; assay type: cell-based, Plasmodium falciparum; conditions: W2 strain (CQ-resistant), ni = no inhibition; for IC50: read-out: P. f. 3D7/W2, IC50
# Procedure: as §3
# P. falciparum strain 3D7 = assay: Antiplasmodial activity in vitro, Hoechst-33258 fluorometric assay or parasite lactate dehydrogenase test; assay type: cell-based; conditions: Plasmodium falciparum; 3D7 strain (CQ-sensitive); read-out: P. f. 3D7/W2, IC50
# Procedure: as §1, §3
# [1] = In vitro cytotoxicity assay; assay type: cell-based; conditions: human, 293T human kidney epithelium cells; 293T cells
# Procedure: Recombinant falcipain-2 and falcipain-3 were produced as previously described. […] The cysteine protease inhibitor E-64 was used as a positive control. The solvent DMSO was used as negative control. […] For the experimental procedures, cells were detached from the flasks with a rubber policeman, washed twice with PBS (phosphate-buffer saline) containing 1 mL trypsin-EDTA (1 x), and suspended at 2 x 10^6 cells mL^-1 in complete medium. Inhibitor assays were carried out as described elsewhere except that the cell concentration used in this study was 2 x 10^4 mL^-1 well^-1 [33].
# [2] = recombinant falcipain-2, values marked ^a: only one experiment, ni = no inhibition, read-out: FP-2 IC50
# [3] = recombinant falcipain-3, ni = no inhibition, read-out: FP-3 IC50
# [4] = recombinant falcipain-2, values marked ^a: only one experiment, ni = no inhibition
# [5] = recombinant falcipain-3, ni = no inhibition
# [6] = Plasmodium falciparum, 3D7 / W2
Structure (SMILES),IC50 (falcipain-2; [2]),IC50 (falcipain-3; [3]),"P. f. 3D7/W2, IC50 (P. falciparum strain W2)",also measured
C=C(CC)C(=O)c1ccc(OCC(=O)OCC)c(Cl)c1 [Compound 1],498 ± 8 µM,346 ± 14 µM,ni^c,
C=C(CC)C(=O)c1ccc(Cl)cc1OCC(=O)OCC [Compound 2],110 ± 5 µM,381 ± 21 µM,ni^c,
"C=C(CC)C(=O)c1ccc(OCC(=O)OC(C)(C)C)c(F)c1 [Compound 3, Tert-butyl 2-(2-fluoro-4-(2-methylenebutanoyl)phenoxy)acetate]",,,,FP-2 IC50 (falcipain-2; [4]): ni; IC50 (P. falciparum strain 3D7): 142 ± 5 µM
"C=C(CC)C(=O)c1ccc(OCC(=O)O)c(F)c1 [Compound 4, 2-(2-fluoro-4-(2-methylenebutanoyl)phenoxy)acetic acid]",,,,IC50 (P. falciparum strain 3D7): 79.8 ± 6 µM
"C=C(CC)C(=O)c1ccc(OCC(=O)NC(C)(C)C)c(F)c1 [Compound 5, N-tert-butyl-2-(2-fluoro-4-(2-methylenebutanoyl)phenoxy)acetamide]",80 ± 5 µM,,,IC50 (P. falciparum strain 3D7): 205 ± 9 µM
"C=C(CC)C(=O)c1ccc(OCC(=O)NCCCC)c(F)c1 [Compound 6, N-butyl-2-(2-fluoro-4-(2-methylenebutanoyl)phenoxy)acetamide]",,,,FP-2 IC50 (falcipain-2; [4]): ni; IC50 (P. falciparum strain 3D7): 141 ± 4 µM; melting point: 73 °C
"C=C(CC)C(=O)c1ccc(OCC(=O)NC(C(=O)OC)C(C)CC)c(F)c1 (centres unmarked) [Compound 7, Methyl-2-(2-(2-fluoro-4-(2-methylenebutanoyl)phenoxy)acetamido)-3-methylpentanoate]",,,,FP-2 IC50 (falcipain-2; [4]): ni
"C=C(CC)C(=O)c1ccc(OCC(=O)O)c(Cl)c1Cl [Compound 8, etacrynic acid]",443 ± 17 µM,,ni^c,FP-3 IC50 (falcipain-3; [5]): ni
C=C(CC)C(=O)c1ccc(OCC(=O)OCC)c(Cl)c1Cl [Compound 9],60.6 ± 4.2 µM,163 ± 5.6 µM,ni^c,
C=C(CC)C(=O)c1ccc(OCC(=O)N[C@@H](C)C(=O)OCc2ccccc2)c(Cl)c1Cl [Compound 10],178 ± 14 µM,56.7 ± 5.7 µM,ni^c,
C=C(CC)C(=O)c1ccc(OCC(=O)NCc2ccccc2)c(Cl)c1Cl [Compound 11],333 ± 5 µM,158 ± 11 µM,ni^c,
C=C(CC)C(=O)c1ccc(OCC(=O)N[C@H](C)C(=O)OCc2ccccc2)c(Cl)c1Cl [Compound 12],165 ± 12 µM,,,
C=C(CC)C(=O)c1ccc(OCC(=O)Nc2ccccc2)c(Cl)c1Cl [Compound 13],269 ± 21 µM,87.2 ± 6 µM,nic,
C=C(CC)C(=O)c1ccc(OCC(=O)NC(C)(C)C(N)=O)c(Cl)c1Cl [Compound 14],318 ± 14 µM,,,FP-3 IC50 (falcipain-3; [5]): ni; IC50 (P. falciparum strain W2; [6]): 29.3 ± 3.4 µM
C=C(CC)C(=O)c1ccc(OCC(=O)NCC(=O)N[C@@H](C)C(N)=O)c(Cl)c1Cl [Compound 15],212 ± 17 µM,,nic,FP-3 IC50 (falcipain-3; [5]): ni
C=C(CC)C(=O)c1ccc(OCC(=O)NCC(=O)N[C@@H](Cc2ccccc2)C(N)=O)c(Cl)c1Cl [Compound 16],242 ± 19 µM,,nic,FP-3 IC50 (falcipain-3; [5]): ni
C=C(CC)C(=O)c1ccc(OCC(=O)N2CCOCC2)c(Cl)c1Cl [Compound 17],305 ± 30 µM,479 ± 23 µM,nic,

Structure (SMILES),IC50 (falcipain-2; [2]),IC50 (falcipain-3; [3]),"P. f. 3D7/W2, IC50 (P. falciparum strain W2)",also measured
C=C(CC)C(=O)c1ccc(OCC(=O)NC(C)(C)C)c(Cl)c1Cl [Compound 18],255 ± 4 µM,153 ± 16 µM,nic,
C=C(CC)C(=O)c1ccc(OCC(=O)N2CCN(CC)CC2)c(Cl)c1Cl [Compound 19],,,,IC50 (falcipain-2): 144 ± 11 µM; IC50 (falcipain-3): 557 ± 23 µM; IC50 (P. falciparum strain W2; [6]): 27.4 ± 4.1 µM
C=C(CC)C(=O)c1ccc(OCC(=O)NCCCC)c(Cl)c1Cl [Compound 20],184 ± 17 µM,158 ± 17 µM,nic,
C=C(CC)C(=O)c1ccc(OCC(=O)NCCCCCC)c(Cl)c1Cl [Compound 21],182 ± 9 µM,123 ± 8 µM,nic,
"C=C(CC)C(=O)c1ccc(OCC(=O)NC(CCC(=O)O)C(=O)O)c(Cl)c1Cl (centres unmarked) [Compound 22, 2-{2-[2,3-Dichloro-4-(2-methylene-butyryl)-phenoxy]acetylamino}pentanedioic acid]",,,nic,FP-2 IC50 (falcipain-2; [4]): ni; FP-3 IC50 (falcipain-3; [5]): ni
"C=C(CC)C(=O)c1ccc(OCC(=O)NCCCCCC(=O)O)c(Cl)c1Cl [Compound 23, 6-{2-[2,3-Dichloro-4-(2-methylene-butyryl)-phenoxy]acetylamino}-hexanoic acid]",57.1 ± 13 µM,96.5 ± 0.6 µM,,IC50 (P. falciparum strain W2; [6]): 18.8 ± 0.9 µM; IC50 [1]: > 160 µM
"C=C(CC)C(=O)c1ccc(OCC(=O)NCCCCCCNC(=O)CCCCC2SCC3NC(=O)NC32)c(Cl)c1Cl (centres unmarked) [Compound 24, 5-(2-Oxo-hexahydro-thieno[3,4-d]imidazol-4-yl)pentanoic acid (6-{2-[2,3-dichloro-4-(2-methylene-butyryl)-phenoxy]acetylamino}-hexyl)-amide]",3 ± 1.1 µM,11.9 ± 1.1 µM,,IC50 (P. falciparum strain W2; [6]): 9 ± 0.4 µM
CCC(C)C(=O)c1ccc(OCC(=O)O)c(Cl)c1Cl (centres unmarked) [Compound 25],531 µM,,ni^c,FP-3 IC50 (falcipain-3; [5]): ni
"CCCC(=O)c1ccc(OCC(=O)NC(C)(C)C)c(Cl)c1Cl [Compound 26, N-tert-butyl-2-(4-butyryl-2,3-dichloro-phenoxy)-acetamide]",484 µM,,ni^c,FP-3 IC50 (falcipain-3; [5]): ni
"CCCCNC(=O)COc1ccc(C(=O)CCC)c(Cl)c1Cl [Compound 27, N-butyl-2-(4-butyryl-2,3-dichloro-phenoxy)-acetamide]",713 µM,,ni^c,FP-3 IC50 (falcipain-3; [5]): ni
"CCCC(=O)c1ccc(OCC(=O)NC(C)(C)C)c(F)c1 [Compound 28, N-tert-butyl-2-(4-butyryl-2-fluorophenoxy)acetamide]",80 ± 6 µM,,,IC50 (P. falciparum strain W2; [6]): 66.4 ± 2.2 µM
"CCCC(=O)c1ccc(OCC(=O)OC(C)(C)C)c(F)c1 [Compound 29, Tert-butyl-2-(4-butyryl-2-fluorophenoxy)acetate]",80 ± 6 µM,,,
"CCCCNC(=O)COc1ccc(C(=O)CCC)cc1F [Compound 30, N-butyl-2-(4-butyryl-2-fluorophenoxy)acetamide]",,,,FP-2 IC50 (falcipain-2; [4]): ni
"CCCC(=O)c1ccc(OCC(=O)NC(C)(C)CO)c(F)c1 [Compound 31, 2-(4-Butyryl-2-fluorophenoxy)-N-(1-hydroxy-2-methylpropan-2-yl)acetamide]",,,,FP-2 IC50 (falcipain-2; [4]): ni
"CCCC(=O)c1ccc(OCC(=O)NC(C(=O)OC)C(C)CC)c(F)c1 (centres unmarked) [Compound 32, Methyl 2-(2-(4-butyryl-2-fluorophenoxy)acetamido)-3-methylpentanoate]",,,,FP-2 IC50 (falcipain-2; [4]): ni
"CC(C)C[C@H](NC(=O)[C@H]1O[C@@H]1C(=O)O)C(=O)NCCCCN=C(N)N [E-64, reference compound]",0.015 ± 0.008 µM,0.075 ± 0.02 µM,,IC50 (P. falciparum strain W2): 5.3 ± 1.05 µM
